Columns and labels:
PAF-Induced Hypotension = assay: Inhibitory Action on PAF-Induced Hypotension; type: in vivo, SD (Jcl) male rats; conditions: po, 30 mg/kg p.o., rat
Method: SD (Jcl) male rats of 6 to 8 week old were subjected to the experiment. After fasting overnight, the rats were cannulated into the femoral artery and vein under anesthesia with pentobarbital. A transducer (MPU-0.5-290O-III, TOYO BALDWIN, Japan) was connected with the artery cannula, and blood pressure was continuously measured. […] The rate of inhibition of lowering of blood pressure after administration of the test samples against the control was evaluated.

[1] = test system: PAF-Induced Platelet Aggregation; assay: Inhibitory Action on PAF-Induced Platelet Aggregation; type: cell-based, New Zealand white male rabbits; conditions: Oryctolagus cuniculus, Drug Concentration: 3 × 10^-5 M, rabbit PRP
Method: Blood was collected from the hearts of conscious New Zealand white male rabbits weighing 2 to 3 kg using citric acid as an anticoagulant (one volume part of 3.15% citric acid per 9 volume parts of the whole blood). The blood was subjected to a centrifuge at 800 rpm for ten minutes to obtain platelet rich plasma (PRP). The remaining blood after collecting the PRP was subjected to a centrifuge at 3000 rpm for ten minutes to obtain platelet poor plasma (PPP). PRP was diluted with PPP, and the number of platelets was adjusted to 500,000/μl. Platelet aggregation was examined by means of turbidimetry [Born, Nature, 194, 927-929 (1962)] with 8 channel aggregometer (NBS HEMA TRACER 6 Nikoh, Bioscience, Japan). More concretely, PRP (250 μl) was kept warm (37° C.) for three minutes in a silicon-processed cuvette, to which was added a test sample (25 μl) dissolved in a physiological saline or in 10mM dimethylsulfoxide followed by dilution with a physiological saline. Two minutes later, PAF (25 μl, 3×10^-9 -1×10^-8 M), dissolved in a physiological saline, was added and then the maximum aggregation rate was determined. As the control, physiological saline without test sample was added to the cuvette, and the inhibitory rate thereon was determined.

[2] = test system: reversed passive Arthus reaction; assay: Inhibitory Action Against Reversed Passive Arthus Reaction; type: in vivo, Jcl SD male rats; conditions: p.o. (n = 6)
Method: This reaction was conducted, in accordance with the method reported by Chang and Otterness [Eur. J. Pharmacol., 69, 155 (1981)], by using rabbit anti-egg albumin (EA) antiserum. Jcl SD male rats (7 wk) were used. Under ether anesthesia, the hair of the back was cut and 1 ml of a 0.5% solution of EA in physiological saline was injected into the tail vein, followed by intracutaneous injection of 0.1 ml each of the left- and right-hand sides of the back. Vascular permeability was measured as follows. Three hours later, 1 ml of physiological saline containing 1% of Evans blue was given intravenously, and 30 minutes later, the animals were sacrificed by bleeding and the skin excised, and the area of wheals stained with a leakage of the dye (major axis x minor axis, mm^2). The test compounds were suspended in a 5% gum arabic solution, which was administered orally one hour before administration of the antigen.

ET-induced death = assay: Anti-Endotoxin Shock Activity in Rats: ET-induced death; type: in vivo, Jcl: SD male rats; conditions: for Number of survivals: 30 mg/kg p.o. one hour before ET, n = 5
Method: (§1) In a manner similar to that described in Test Example 2, Jcl: SD male rats (200 to 250 g) were applied with cannulation for measurement of blood pressure and for injecting PAF. The test animals were fasted overnight, and the experiments were conducted. The cannula on the side of femoral artery was connected with a pressure transducer and secured. The, endotoxin (ET) (50 mg/kg) was given through the cannula on the side of femoral vein at a rate of 1 ml/kg. While measuring blood pressure continuously, time until death was measured. Test drugs (30 mg/kg) were suspended in gum arabic and water, which were orally administered (5 ml/kg) to test animals one hour before the injection of ET. The animals in the control group were administered with a suspension of gum arabic in water.

cerebral infarction [3] = assay: Action Against Experimental Cerebral Infarction in Mongolian Gerbils (inclined plane); type: in vivo; conditions: 30 mg/kg, p.o., n = 5
Method: (§2) Male 10 weeks old Mongolian gerbils were anesthetized with ether. The common carotid artery on both sides was exposed surgically. After waking, the artery was ligated with steel clips for 15 minutes. Then, the clips were removed and the blood was reperfused for three hours. Ataxia symptoms and manifestations of neuro-deficiency were assessed by the method using stroke index [C. P. McGraw: Arch. Neurol., 34, 334-336 (1977)] and inclined plane [A. S. Rivlin et al.: J. Neurosurg., 47, 577-581 (1977)]. The test compounds were orally administered one hour before ligation as a suspension in gum arabic. The control group was administered with the same volume of gum arabic. The number of animals subjected to this experiment was 5 each in both groups.

Wistar-strain rats = assay: Toxicity Test; type: in vivo, Male Wistar-strain rats; conditions: 30, 100 and 300 mg/kg per day orally, two weeks
Method: Male Wistar-strain rats (5 wk) were used in groups of five individuals. The animals of the respective groups were orally administered with the compound of Example 62 at the dose of 30, 100 and 300 mg/kg per day over a period of two weeks as a suspension in gum arabic and water at a rate of 10 ml/kg. The animals of the control group were administered with a suspension of gum arabic in water. [Results]

cerebral infarction [4] = assay: Action Against Experimental Cerebral Infarction in Mongolian Gerbils (stroke index); type: in vivo; conditions: 30 mg/kg, p.o., N = 5
Method: as §2

diabetic nephropathy = assay: Action Against Diabetic Nephropathy; type: in vivo, Female KKAy mice; conditions: for albumin (%) excreted in urine / Amount of albumin excreted in urine / Amount of glucose in plasma / Amount of triglyceride in plasma / Total amount of protein in urine: 3 weeks, N 8; for albumin (%) excreted in urine: in parentheses; for Amount of albumin excreted in urine / Amount of glucose in plasma / Amount of triglyceride in plasma / Total amount of protein in urine: means ±SE
Method: Female KKAy mice of 10 weeks old were employed. Test animals were administered with the compound of Example 62 for three weeks at doses of 8 and 26 mg/kg/day in admixture with feedstuff. Then, urine was collected from these animals for 24 hours. Urine desalted (filtered urine) by means of a PD-10 column (Pharmacia) was employed to determine the total protein concentration in the urine by using a protein-assay kit (Bio-Rad). The amount ot albumin in the urine was calculated from the relative concentration of albumin to the total protein determined by means of electrophoresis.
Glucose and triglyceride in the plasma were determined by an enzyme method using the Ankol Chemistry System (Baker instruments).

ET-induced hypotension = assay: Anti-Endotoxin Shock Activity in Rats: ET-induced hypotension; type: in vivo, Jcl: SD male rats; conditions: for Blood Pressure: 30 mg/kg p.o. one hour before ET, n = 5
Method: as §1

[5] = 8 and 26 mg/kg/day, three weeks

## COc1cc2c(cc1OC)CCCC(C(=O)N1CCN(C(=O)c3cc(OC)c(OC)c(OC)c3)CC1)=C2 [Example 62, 1-(2,3-dimethoxy-6,7-dihydro-5H-benzocyclohepten-8-ylcarbonyl)-4-(3,4,5-trimethoxybenzoyl)piperazine]
PAF-Induced Hypotension; after 1 hr
  inhibition in vivo at 30 mg/kg: 100%
PAF-Induced Hypotension; after 2 hrs
  inhibition in vivo at 30 mg/kg: 100%
PAF-Induced Hypotension; after 4 hrs
  inhibition in vivo at 30 mg/kg: 100%
[1]
  inhibition at 30 µM: 100%
[2]; 3.1 mg/kg
  Area of wheals stained with the dye: 52.8 ± 2.7 mm^2
  Preventive effect of reversed passive Arthus reaction: 5%
[2]; 12.5 mg/kg
  Area of wheals stained with the dye: 38.4 ± 6.1 mm^2
  Preventive effect of reversed passive Arthus reaction: 31%
[2]; 50 mg/kg
  Preventive effect of reversed passive Arthus reaction: 70%
[2]; 50 mg/kg, **P < 0.01
  Area of wheals stained with the dye: 16.8 ± 5.1 mm^2
ET-induced death; 0 hr
  Number of survivals: 5
ET-induced death; 1 hr
  Number of survivals: 5
ET-induced death; 2 hr
  Number of survivals: 5
ET-induced death; 3 hr
  Number of survivals: 5
ET-induced death; 4 hr
  Number of survivals: 4
ET-induced death; 5 hr
  Number of survivals: 2
ET-induced death; 6 hr
  Number of survivals: 1
ET-induced death; 7 hr
  Number of survivals: 1
ET-induced death; 8 hr
  Number of survivals: 1
ET-induced death; 30 mg/kg p.o., control group 108±26 minutes, **
  survival time: 320 ± 45 min
Cerebral infarction [3]; 15 min after reperfusion
  Angle of inclined plane where test animals tumble down the ramp: 34 ± 3 °
Cerebral infarction [3]; 30 min after reperfusion
  Angle of inclined plane where test animals tumble down the ramp: 35 ± 3 °
Cerebral infarction [3]; 60 min after reperfusion, *P < 0.05
  Angle of inclined plane where test animals tumble down the ramp: 35 ± 2 °
Cerebral infarction [3]; 120 min after reperfusion, *P < 0.05
  Angle of inclined plane where test animals tumble down the ramp: 36 ± 2 °
Cerebral infarction [3]; 180 min after reperfusion
  Angle of inclined plane where test animals tumble down the ramp: 38 ± 2 °
Cerebral infarction [3]; ligation time 0 min
  Angle of inclined plane where test animals tumble down the ramp: 47 ± 1 °
Cerebral infarction [3]; ligation time 15 min
  Angle of inclined plane where test animals tumble down the ramp: 20 ± 0 °
Wistar-strain rats
  body weight between the control group and the test group: No difference in body weight
  general behaviors: no change was observed in general behaviors
  internal organs under macroscopic observation (autopsy): no abnormality in internal organs
Cerebral infarction [4]; 15 min after reperfusion, **P < 0.01
  Stroke index: 4.2 ± 0.6
Cerebral infarction [4]; 30 min after reperfusion, **P < 0.01
  Stroke index: 3.4 ± 0.5
Cerebral infarction [4]; 60 min after reperfusion, **P < 0.01
  Stroke index: 3.2 ± 0.5
Cerebral infarction [4]; 120 min after reperfusion, **P < 0.01
  Stroke index: 2.0 ± 0
Cerebral infarction [4]; 180 min after reperfusion, **P < 0.01
  Stroke index: 0.8 ± 0.5
Cerebral infarction [4]; ligation time 0 min
  Stroke index: 0
Cerebral infarction [4]; ligation time 15 min, *P < 0.05
  Stroke index: 14.0 ± 1.0
Diabetic nephropathy; 8 mg/kg/day p.o.
  albumin (%) excreted in urine: 46%
  Amount of albumin excreted in urine: 11.0 ± 2.0 mg/day
  Amount of glucose in plasma: 326 ± 26 mg/dL
  Amount of triglyceride in plasma: 499 ± 45 mg/dL
  Total amount of protein in urine: 23.8 ± 2.9 mg/day
Diabetic nephropathy; 26 mg/kg/day
  suppression of excretion of albumin in urine: significant
Diabetic nephropathy; 26 mg/kg/day p.o.
  albumin (%) excreted in urine: 36%
  Amount of glucose in plasma: 381 ± 33 mg/dL
  Amount of triglyceride in plasma: 546 ± 43 mg/dL
  Total amount of protein in urine: 22.0 ± 3.8 mg/day
Diabetic nephropathy; 26 mg/kg/day p.o., *p<0.05 vs control
  Amount of albumin excreted in urine: 8.0 ± 0.7 mg/day
Diabetic nephropathy; [5]
  excretion of albumin in urine: suppressed the excretion of albumin in urine dose-dependently
  plasma glucose: No change
  plasma triglyceride: No change
Diabetic nephropathy; high dose
  total protein in urine: showed a tendency of being suppressed in a high dose
ET-induced hypotension; 30 mg/kg p.o.
  lowering of blood pressure due to ET: suppressed significantly
ET-induced hypotension; 0 min
  Blood Pressure: 92 ± 2 mmHg
ET-induced hypotension; 3 min
  Blood Pressure: 82 ± 6 mmHg
ET-induced hypotension; 5 min, **P < 0.01
  Blood Pressure: 90 ± 4 mmHg
ET-induced hypotension; 10 min, *P < 0.05
  Blood Pressure: 90 ± 4 mmHg
ET-induced hypotension; 15 min
  Blood Pressure: 92 ± 3 mmHg
ET-induced hypotension; 20 min
  Blood Pressure: 95 ± 3 mmHg

— US4880809A, “1,4-disubstituted piperazines (or homopiperazines) as platelet-activating factor antagonists” (Takeda Chemical Industries, Ltd., priority 1987, dated 1989)
